Experiments:
GCN2 kinase = GCN2 kinase (Homo sapiens (Human), UniProt Q9P2K8); assay: Biochemical assay for GCN2 (TR-FRET kinase activity); details: 1 mM ATP
Description: Activity of GCN2 kinase was determined using a TR-FRET kinase activity assay (e.g. Riddle et al. Analytical Biochemistry (2006) 356(1) 108-116). Assays were conducted in 384-well plates (13 μL assay volume) using 2 nM GCN2 (Carna Biosciences), 130 nM GFP-EIf2α (Invitrogen), 0.2 mg/mL E. coli tRNA (sigma) and 1 mM ATP in kinase buffer (Invitrogen). Inhibition of GCN2 was measured by adding serial diluted test compound (final assay concentration of 0.5% DMSO) followed by a 3-hour incubation. Tb-peIF2α (pSer52) antibody (Invitrogen) (2 nM final assay concentration) in kinase buffer containing EDTA (final assay concentration of 20 mM) was added. After a 60 min incubation at room temperature, TR-FRET was monitored using an excitation wavelength of 340 nm and emission wavelengths of 490 nm and 520 nm. The emission ratio (520/490) at each compound concentration of was converted to percent inhibition using controls (i.e., reaction with no test compound and reaction with a known inhibitor) and IC50 values were calculated by fitting a four-parameter sigmoidal curve to the data using Prism (GraphPad software).

PERK enzyme = PERK enzyme (Homo sapiens (Human), UniProt Q9NZJ5); assay: Biochemical assay for PERK (coupled pyruvate kinase/lactate dehydrogenase); details: 1 mM ATP
Sequence of PERK enzyme (Q9NZJ5 other isoform, or with tags, fused parts or gaps): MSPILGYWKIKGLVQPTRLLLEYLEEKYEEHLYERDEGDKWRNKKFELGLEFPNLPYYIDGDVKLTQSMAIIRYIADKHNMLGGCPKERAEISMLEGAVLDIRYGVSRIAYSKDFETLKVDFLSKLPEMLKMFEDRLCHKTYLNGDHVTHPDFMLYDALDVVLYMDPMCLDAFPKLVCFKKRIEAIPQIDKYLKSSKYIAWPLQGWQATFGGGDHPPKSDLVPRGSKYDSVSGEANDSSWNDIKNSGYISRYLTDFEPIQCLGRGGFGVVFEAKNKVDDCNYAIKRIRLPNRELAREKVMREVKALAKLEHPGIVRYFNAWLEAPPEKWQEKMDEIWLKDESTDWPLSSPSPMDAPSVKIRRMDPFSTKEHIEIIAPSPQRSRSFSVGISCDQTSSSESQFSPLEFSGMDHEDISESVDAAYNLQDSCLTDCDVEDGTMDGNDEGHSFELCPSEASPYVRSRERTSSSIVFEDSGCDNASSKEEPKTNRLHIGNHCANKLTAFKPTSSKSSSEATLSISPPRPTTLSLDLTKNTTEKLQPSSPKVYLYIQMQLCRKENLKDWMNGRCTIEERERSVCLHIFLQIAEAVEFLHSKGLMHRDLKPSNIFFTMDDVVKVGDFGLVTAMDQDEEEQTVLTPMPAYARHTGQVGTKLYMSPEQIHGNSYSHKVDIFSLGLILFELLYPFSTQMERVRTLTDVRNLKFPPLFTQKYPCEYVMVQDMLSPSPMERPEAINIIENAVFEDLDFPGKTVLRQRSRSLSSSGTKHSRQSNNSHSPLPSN
Description: Activity of PERK kinase was determined spectroscopically using a coupled pyruvate kinase/lactate dehydrogenase assay that continuously monitors the ATP hydrolysis-dependent oxidation of NADH (e.g., Schindler et al. Science (2000) 289: 1938-1942). Assays were conducted in 384-well plates ([…] final volume) using 10 nM PERK (from Beryllium), 0.25 mg/mL Myelin Basic Protein substrate, 1.5 units pyruvate kinase, 2.1 units lactate dehydrogenase, 1 mM phosphoenol pyruvate, 0.28 mM NADH and 1 mM ATP in assay buffer (100 mM Tris, pH 7.5, 15 mM MgCl2, 0.5 mM DTT, 0.004% (w/v) BSA, and 0.004% Triton X-100). Inhibition of PERK was measured by adding serial diluted test compound (final assay concentration of 1% DMSO). A decrease in absorption at 340 nm was monitored continuously for 6 hours at 30° C. on a multi-mode microplate reader (BioTek). The reaction rate was calculated using the 2-3 h time frame. The reaction rate at each concentration of compound was converted to percent inhibition using controls (i.e., reaction with no test compound and reaction with a known inhibitor) and IC50 values were calculated using software routines in Prism (GraphPad software).

CCRF-CEM leukemia cells = assay: CCRF-CEM ASNase cell proliferation assay; type: cell-based; details: Homo sapiens, 1 mU/mL ASNase, 72 h
Description: CCRF-CEM leukemia cells (catalog #CCL-116) were obtained from the American Type Culture Collect (ATTC, Manassas, VA). Cells were grown in RPMI-1640 medium supplemented with 10% heat-inactivated fetal bovine serum (Invitrogen, Carlsbad, CA) and 1% Penicillin/Streptomycin/L-Glutamine at 37° C., 5% CO2, and 95% humidity. Cells were expanded until reaching one million cells per mL at which time they are subcultured or harvested for assay use. Ten thousand cells per well in 200 μL RPMI-1640 supplemented with 10% heat-inactivated fetal bovine serum and 1% Penicillin/Streptomycin were dispensed into a 96-well black clear bottom plate. A serial dilution of test compound and 1 mU/mL ASNase was added in triplicate and plates were incubated for 72 h at 37° C., 5% CO2, and 95% humidity. At the end of the incubation, 40 μL of a […] solution of resazurin (Sigma, St. Louis, MO) in PBS was added to each well of the plate and plates were incubated for an additional 6 h at 37° C., 5% CO2, and 95% humidity. Plates were read on a Synergy2 or equivalent reader (Biotek, Winooski VT) using an excitation of 540 nm and an emission of 600 nm. Data was analyzed using GraphPad Prism software (GraphPad, San Diego, CA) to calculate IC50 values.

[1] = tested on: ATF4 in thapsigargin stimulated CCRF-CEM cells (PERK); assay: CCRF-CEM thapsigargin (TG) ATF4 ELISA; type: cell-based; details: Homo sapiens, 1 μM thapsigargin
Description: CCRF-CEM leukemia cells (catalog #CCL-116) were obtained from the American Type Culture Collection (ATTC, Manassas, VA). Briefly, cells were grown in RPMI-1640 medium supplemented with 10% heat-inactivated fetal bovine serum (Invitrogen, Carlsbad, CA) and 1% Penicillin/Streptomycin/L-Glutamine at 37° C., 5% CO2, and 95% humidity. Cells were expanded until reaching one million cells per mL at which time they were subcultured or harvested for assay use. One million five hundred thousand cells per well in 1 mL complete growth medium were dispensed into 12-well plates and incubated overnight. A serial dilution of test compound was added and cells were incubated at 37° C., 5% CO2, and 95% for three hours, then 1 μM thapsigargin was added and cells were incubated for an additional hour at 37° C., 5% CO2, and 95%. Cells were lysed then ATF4 levels were measured using an ELISA assay (Proteintech, Rosemont, IL). Absorbance was measured at 450 nm and 544 nM using a Synergy2 or equivalent reader (Biotek, Winooski VT). Data was analyzed using PRISM software (Graphpad, San Diego, CA) to calculate IC50 values.

[2] = tested on: ATF4 in H929 multiple myeloma cells; assay: H929 ATF4 ELISA assay; type: cell-based; details: four hours, relative to vehicle treated control
Description: H929 multiple myeloma cells (catalog #CRL-9068) were obtained from the American Type Culture Collection (ATTC, Manassas, VA). Briefly, cells were grown in RPMI-1640 medium supplemented with 20% heat-inactivated fetal bovine serum (catalog #A3840002, ThermoFisher Scientific, Waltham, MA), 1% Penicillin/Streptomycin/L-Glutamine (catalog #10378016, ThermoFisher Scientific, Waltham, MA), and 0.05 mM 2-mercaptoethanol (catalog #21985-023, ThermoFisher Scientific, Waltham, MA) at 37° C., 5% CO2, and 95% humidity. Cells were expanded until reaching one million five hundred thousand cells per mL at which time they were sub-cultured or harvested for assay use. One million five hundred thousand cells per well in 1 mL complete growth medium were dispensed into 12-well plates and incubated overnight. A serial dilution of test compound was added, and cells were incubated at 37° C., 5% CO2, and 95% for four hours. Cells were lysed then ATF4 levels were measured using an ELISA assay (Proteintech, Rosemont, IL). Absorbance is measured at 450 nm and 544 nM using a Synergy2 or equivalent reader (Biotek, Winooski VT). Data were analyzed using PRISM software (Graphpad, San Diego, CA) to calculate fold stimulation of cellular ATF4 relative to vehicle treated control.

Sequence of GCN2 kinase (Q9P2K8 whole entry): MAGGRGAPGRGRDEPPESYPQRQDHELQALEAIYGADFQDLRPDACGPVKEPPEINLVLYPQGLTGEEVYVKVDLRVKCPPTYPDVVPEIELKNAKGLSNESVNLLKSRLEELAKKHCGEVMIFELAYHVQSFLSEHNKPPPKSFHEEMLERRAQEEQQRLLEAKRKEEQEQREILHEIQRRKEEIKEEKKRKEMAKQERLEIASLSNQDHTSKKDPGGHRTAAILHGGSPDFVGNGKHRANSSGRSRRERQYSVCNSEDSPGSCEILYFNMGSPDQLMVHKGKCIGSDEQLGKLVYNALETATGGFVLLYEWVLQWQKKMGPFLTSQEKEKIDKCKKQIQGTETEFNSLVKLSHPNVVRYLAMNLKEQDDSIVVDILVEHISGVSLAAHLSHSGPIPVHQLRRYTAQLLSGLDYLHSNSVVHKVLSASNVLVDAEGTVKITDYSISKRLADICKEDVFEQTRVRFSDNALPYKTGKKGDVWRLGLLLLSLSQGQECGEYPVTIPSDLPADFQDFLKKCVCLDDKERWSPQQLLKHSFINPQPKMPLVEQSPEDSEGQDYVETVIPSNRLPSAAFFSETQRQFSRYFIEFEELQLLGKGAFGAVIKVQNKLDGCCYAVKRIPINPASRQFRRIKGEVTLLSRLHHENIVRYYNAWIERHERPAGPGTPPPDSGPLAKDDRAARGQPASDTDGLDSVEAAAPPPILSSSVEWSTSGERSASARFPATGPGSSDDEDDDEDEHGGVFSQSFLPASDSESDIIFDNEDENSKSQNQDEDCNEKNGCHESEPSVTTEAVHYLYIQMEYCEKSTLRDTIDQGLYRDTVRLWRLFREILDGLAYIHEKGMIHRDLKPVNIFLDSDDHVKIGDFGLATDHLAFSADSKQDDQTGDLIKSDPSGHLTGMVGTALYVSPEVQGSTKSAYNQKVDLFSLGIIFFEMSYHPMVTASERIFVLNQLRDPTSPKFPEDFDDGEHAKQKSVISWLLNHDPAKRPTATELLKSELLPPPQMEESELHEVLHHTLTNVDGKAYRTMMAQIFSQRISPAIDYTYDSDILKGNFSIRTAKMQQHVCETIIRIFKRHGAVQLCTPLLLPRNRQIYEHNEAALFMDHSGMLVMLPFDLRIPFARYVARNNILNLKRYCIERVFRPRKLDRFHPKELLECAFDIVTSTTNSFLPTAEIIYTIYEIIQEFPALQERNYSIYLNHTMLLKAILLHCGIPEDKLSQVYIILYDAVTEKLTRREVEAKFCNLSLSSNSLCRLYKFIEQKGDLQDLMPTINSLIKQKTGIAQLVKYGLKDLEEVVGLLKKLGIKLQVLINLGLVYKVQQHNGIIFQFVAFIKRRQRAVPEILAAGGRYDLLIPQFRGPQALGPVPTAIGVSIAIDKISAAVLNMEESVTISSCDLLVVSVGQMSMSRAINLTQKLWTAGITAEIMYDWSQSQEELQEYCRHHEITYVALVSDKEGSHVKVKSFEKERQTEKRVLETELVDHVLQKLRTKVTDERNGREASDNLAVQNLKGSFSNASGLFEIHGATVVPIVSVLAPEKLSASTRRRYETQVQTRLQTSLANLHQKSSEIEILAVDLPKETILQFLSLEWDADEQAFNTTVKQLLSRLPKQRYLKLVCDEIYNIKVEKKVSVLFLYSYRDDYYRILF

Row | Structure (SMILES) | IC50 (GCN2 kinase) | IC50 (PERK enzyme) | IC50 (CCRF-CEM leukemia cells) | IC50 [1] | H929 NS ATF4 ELISA (ATF4 stim) [2]
1 | Nc1ncnc2c1c(-c1cccc(NS(=O)(=O)c3cc(Cl)cc(CO)c3Cl)c1F)cn2C1CNC1 [Example 16] | ≤ 100 nM | ≤ 100 nM | 500 to 1000 nM | 100 to 500 nM | 
2 | CN1CCC(n2cc(-c3cccc(NS(=O)(=O)c4cc(Cl)cc(CO)c4Cl)c3F)c3c(N)ncnc32)CC1 [Example 17] |  |  | ≤ 100 nM | ≤ 100 nM | +++ (an ATF4 stim greater than 10 fold and less than or equal to 20 fold)
3 | Cn1cc(-c2cccc(NS(=O)(=O)c3cc(Cl)cc(CO)c3Cl)c2F)c2c(N)nccc21 [Example 18] | 1000 to 10000 nM | ≤ 100 nM | 1000 to 10000 nM | 1000 to 10000 nM | 
4 | Cn1cc(-c2cccc(NS(=O)(=O)c3cc(F)cc(CO)c3Cl)c2F)c2c(N)ncnc21 [Example 19] | 100 to 500 nM | ≤ 100 nM | 100 to 500 nM | ≤ 100 nM | 
5 | Cn1cc(-c2cccc(NS(=O)(=O)c3cc(Cl)cc(CO)c3Cl)c2Cl)c2c(N)ncnc21 [Example 20] | 100 to 500 nM | ≤ 100 nM | 100 to 500 nM | 100 to 500 nM | 
6 | Cn1cc(-c2cccc(NS(=O)(=O)c3cc(Cl)cc(CO)c3F)c2F)c2c(N)ncnc21 [Example 22] | 100 to 500 nM | ≤ 100 nM | 1000 to 10000 nM | 100 to 500 nM | 
7 | [2H]C([2H])([2H])n1cc(-c2cccc(NS(=O)(=O)c3cc(Cl)cc(CO)c3Cl)c2F)c2c(N)ncnc21 [Example 27] | ≤ 100 nM | ≤ 100 nM | ≤ 100 nM | ≤ 100 nM | 
8 | COCc1cc(Cl)cc(S(=O)(=O)Nc2cccc(-c3cn(C)c4ncnc(N)c34)c2F)c1Cl [Example 29] | 100 to 500 nM | ≤ 100 nM | 1000 to 10000 nM | 100 to 500 nM | 
9 | CCC(C)(C)C(=O)OCc1cc(Cl)cc(S(=O)(=O)Nc2cccc(-c3cn(C)c4ncnc(N)c34)c2F)c1Cl [Example 30] | 1000 to 10000 nM | 1000 to 10000 nM | 1000 to 10000 nM | 500 to 1000 nM | 
10 | Cn1cc(-n2cc(-c3cccc(NS(=O)(=O)c4cc(Cl)cc(CO)c4Cl)c3F)c3c(N)ncnc32)cn1 [Example 31] | ≤ 100 nM | ≤ 100 nM | ≤ 100 nM | ≤ 100 nM | 
11 | Nc1ncnc2c1c(-c1cccc(NS(=O)(=O)c3cc(Cl)cc(CO)c3Cl)c1F)cn2-c1cn[nH]c1 [Example 32] | ≤ 100 nM | ≤ 100 nM | ≤ 100 nM | 100 to 500 nM | 
12 | Cn1cc(-c2cccc(NS(=O)(=O)c3cc(Cl)cc(CO)c3Br)c2F)c2c(N)ncnc21 [Example 33] | ≤ 100 nM | ≤ 100 nM | ≤ 100 nM | ≤ 100 nM | 
